# Measured values: patent US8835617B2, “Polynucleotides encoding a human TRIM-Cyp fusion polypeptide, compositions thereof, and methods of using same” (priority 2008, dated 2014)
# Key:
# [1] = tested on: HIV-1NL4-3; experiment: HIV-1 challenge of CD4+ T cell cultures with <25% transduced cells; assay type: cell-based
# From the text: These conditions would be more realistic of hT5Cyp therapy in patients. […] The survival advantage of CD4^+ T cell becomes apparent when analyzing the viability of the cells by forward versus side-scatter and gating on live lymphocytes; a method that had to be adopted since the cells were fixed in paraformaldehyde for flow cytometry analysis.
# [2] = tested on: primary human CD4+ T cells; experiment: Proliferation, IL-2 production and surface markers of transduced primary CD4+ T cells; assay type: cell-based
# From the text: The functions of endogenous CypA and T5 in hCD4^+ T cells remain largely uncharacterized. […] This complex inhibits T cell function by binding to the serine/threonine phosphatase calcineurin and blocking downstream signaling events (Handschumacher et al., 1984; Liu et al., 1991). Functionally, CypA is a peptidyl-prolyl isomerase (PPiase) which catalyses the rate-limiting cis-trans interconversion of peptide bonds N-terminal to proline, an enzymatic activity not required for immunosuppression via CsA (Fischer et al., 1984; Liu et al., 1991; Schmid, 1995). The peptidyl-prolyl isomerases are represented by three structurally distinct families: cyclophilins, FKBPs, and parvulins. Given their astounding evolutionary persistence, from some archeabacteria to all mammals, cyclophilins are not well understood (Colgan et al., 2000; Gothel and Marahiel, 1999).
# Activated, scAPLS-transduced primary human CD4^+ T cells were maintained in culture for 6 days. 1×10^5 cells were transferred in triplicate into 96-well flat-bottom microplates (Falcon) and labeled for 18 h with […] of ^[3H]thymidine (GE-Amersham). The DNA-incorporated radioactivity was measured by liquid scintillation counting. Data were expressed as mean corrected counts per minute (ccpm) of […] cultures.
# IL-2 producing capacity of hT5Cyp-expressing primary human T cells was assessed after stimulation for 6 h with 100 nM PMA and 1 μg/ml Ionomycin (Sigma-Aldrich). Brefeldin A (Sigma-Aldrich) was added at 10 μg/ml during the last 4 h of stimulation.
# The following antibodies were used for cell surface stains of primary CD4^+ T cells: α-CD4 (RPA-T4), α-CXCR4 (12G5), and α-MHC I (HLA A, B, C) (G46-2.6) (all from BD-Pharmingen).
# [3] = tested on: HIV-1; conditions: of CD45^+GFP^+ cells
# From the text: HIV-1 infection spreads from cell to cell at high titer in complex lymphoid tissues with a specific hierarchy of T cell destruction and distinct kinetics in vivo (Douek et al., 2003). […] This mouse model takes advantage of the lack of functional B, T, and NK cells in Rag2^−/−γc^−/− mice and allows for improved engraftment of xenografts as well de novo intrathymic generation of human T cells (Baenziger et al., 2008; Mazurier et al., 1999). Briefly, CD34^+ hematopoietic stem and progenitor cells are enriched from cord blood of healthy donors by MACS and transplanted intrahepatically into irradiated, newborn Rag2^−/−γc^−/− mice (FIG. 63A). 2-4 months post-transplant, reconstitution of peripheral blood is assessed by flow cytometry, and mice with more that 5% hCD45^+ cells in peripheral blood are infected intraperitoneally (i.p.) with HIV-1 (FIG. 63A).
# An aliquot of cells was maintained in culture with the subsequent addition of SCF, TPO, and Flt3L, and assessed for GFP-expression 72 hours post-transduction.
# huRag2^−/−γc^−/− mice were generated as previously described^1. Briefly, fresh human cord blood was obtained with parent written informed consent from healthy full-term newborns (Department of Gynecology and Obstetrics, Ospedale San Giovanni, Bellinzona). […] Traggiai, E., et al. Development of a human adaptive immune system in cord blood cell-transplanted mice. […]
# [4] = tested on: HIV-1; conditions: quantitative PCR, Jurkat
# Description: Since the objective was to engineer a fully human HIV-1 restriction factor, hCypA was the fused at 10 different positions along the length of hT5α (FIG. 44A).
# Total cellular DNA was extracted from 2×10^6 Jurkat T cells using the DNeasy Blood and Tissue kit (Qiagen). qPCR was performed with the Applied Biosystems 7900HT system, using 250 ng total DNA and Taqman Gene Expression master mix (Applied Biosystems). Each experimental condition was performed in triplicate and data analyzed using the SDS software, version 2.2.2 (Applied Biosystems).
# [5] = tested on: cell-associated HIV-1; experiment: hCD4+-Rag2-/-γc-/- mice infected with cell-associated HIV-1; assay type: in vivo
# Description: Furthermore, the previous infections were initiated with cell-free HIV-1. […] Untransduced (GFP^−) CD4^+ cells from the same donor were cultured side by side and infected with CXCR4-tropic HIV-1 prior to infection of reconstituted mice. […] Peripheral blood was analyzed one, two, and three weeks after infection and mice were sacrificed three weeks after infection (FIG. 71A).
substance,measurement,setting,value
"hT5Cyp: human TRIM5α fused at serine 322 to human cyclophilin A, SEQ ID NO:12",RT activity in the culture supernatant,[1]; mixed culture,significantly lower
same,day of peak viral replication,[1]; mixed culture,28 days
same,transduced cells in the culture after HIV-1 infection,[1]; start <25% transduced,75%
same,IL-2 production,[2]; PMA and ionomycin,produced comparable amounts of IL-2
same,proliferation,[2]; thymidine incorporation vs untransduced,proliferated at the same rate as untransduced cells
same,cell-surface marker expression,[2]; vs untransduced,"expressed the same level of cell-surface CD4, CXCR4, and MHC I"
same,Post-infection GFP^+ CD3,[3],0%
same,accumulation of viral cDNA,[4],blocked the accumulation of viral cDNA
same,p24^+ of total human T cells in the infected thymus,"[5]; mouse, in vivo",0.9%
same,protection of total CD3^+ T cell numbers in the thymus,"[5]; mouse, in vivo",3.7 fold
same,CD3^+ T cells in thymus,[5]; n=2,2×10^7
same,reduction in mean viral load vs hT5CypH126Q,[5]; one week post-infection,9.7 fold
same,CD4^+ T cell numbers relative to initial levels,"[5]; peripheral blood, three weeks post-infection",≥ 40%
same,p24^+ of GFP^hi cells,[5]; thymus,few
same,p24^+ of GFP^neg/lo cells,[5]; thymus,3.2%
same,reduction in total numbers of GFP^− p24^+ cells vs hT5CypH126Q,[5]; thymus,> 3.3 fold
same,reduction in mean viral load vs hT5CypH126Q,[5]; two weeks post-infection,4.3 fold
